One test concerns the target T1, ROC1/CUL1 (Homo sapiens, UniProt P62877+Q13616).
T1 construct: made in house
Nature of the test: ROC1/CUL1 ubiquitin ligase assay (SCF assay). The test is classed as biochemical. The method, then: Inhibition of ubiquitin ligase activity of E1+E2+E3 was measured using the protocol as described in WO 01/75145 with E3 as the ROC1/CUL1, ROC1/CUL2, or ROC2/CUL5 complex.
The wells of nickel-substrate 96-well plates (Pierce Chemical) are blocked with 100 μl of 1 casein/phosphate buffered saline (PBS) for 1 hour at room temperature, then washed with 200 μl of PBST (0.1% Tween-20 in PBS) 3 times. To each well is added the following Flag-ubiquitin (see above) reaction solution: 62.5 mM Tris pH 7.5, 6.25 mm MgCl2, 0.75 mM DTT, 2.5 mM ATP, 2.5 mM NaF1, 2.5 nM Okadaic acid, 100 ng Flag-ubiquitin (made as described above).
The buffer solution is brought to a final volume of 80 μl with Milipore-filtered water, followed by the addition of 10 μl DMSO.
To the above solution is then added 10 μl of ubiquitination enzymes in 20 mM Tris buffer, pH 7.5, and 5% glycerol. E2-Ubch5c and E3-His ROC1/Cul1, ROC1/CUL2, and ROC2/CUL5 are made as described in WO 01/75145. E1 is obtained commercially (Affiniti Research Products, Exeter, U. K.). The following amounts of each enzyme are used for these assays: 5 ng/well of E1; […] E2; and 100 ng/well His-E3. Varying amounts of compounds according to the invention are added and the reaction allowed to proceed at room temperature for 1 hour.
Following the ubiquitination reaction, the wells are washed with 200 μl of PBST 3 times. For measurement of the enzyme-bound ubiquitin, 100 gel of Mouse anti-Flag (1:10,000) and anti-Mouse Ig-HRP (1:15, 000) in PBST are added to each well and allowed to incubate at room temperature for 1 hour. The wells are then washed with 200 μl of PBST 3 times, followed by the addition of 100 μl of luminol substrate (1/5 dilution). Luminescence for each well is then measured using a fluorimeter.
Table 2 below illustrates the inhibitory activity of the compounds of the invention determined by the TRAF6/Uev1A/Ubc13 assay as well as in the ICAM, APC and the ROC1/CUL1 Ubiquitin Ligase Assay (SCF Assay). The IC50 values were determined using a various concentrations of the compounds.

For the next test, the target named is T2, TRAF6/Uev1A/Ubc13 (Homo sapiens, UniProt Q9Y4K3).
T2 sequence (Q9Y4K3 1-522): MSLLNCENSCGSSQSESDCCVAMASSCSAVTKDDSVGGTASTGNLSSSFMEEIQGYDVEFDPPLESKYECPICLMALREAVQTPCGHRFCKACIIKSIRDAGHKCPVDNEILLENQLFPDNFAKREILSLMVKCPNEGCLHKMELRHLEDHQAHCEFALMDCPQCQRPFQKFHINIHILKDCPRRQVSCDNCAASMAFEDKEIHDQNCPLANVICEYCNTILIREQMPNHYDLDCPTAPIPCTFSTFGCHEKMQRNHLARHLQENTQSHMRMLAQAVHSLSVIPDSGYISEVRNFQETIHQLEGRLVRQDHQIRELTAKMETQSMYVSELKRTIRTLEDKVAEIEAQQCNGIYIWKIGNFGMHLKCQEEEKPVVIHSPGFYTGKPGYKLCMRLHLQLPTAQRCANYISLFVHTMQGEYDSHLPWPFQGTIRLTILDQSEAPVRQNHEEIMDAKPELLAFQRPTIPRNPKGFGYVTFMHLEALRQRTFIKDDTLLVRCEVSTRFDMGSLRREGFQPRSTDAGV
The test is described as follows: TRAF6/Uev1A/Ubc13 plate-based ubiquitin ligase assay. The test is classed as biochemical. The essentials: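 Ligase activity was read as luminescence from anti-Flag/HRP detection of Flag-ubiquitin bound to casein-blocked Ni-plates alongside His-ubiquitin after a 1 h room-temperature reaction. Buffer: 62.5 mM Tris pH 7.5, 6.25 mM MgCl2, 1.0 mM DTT, 2 μM ATP; E1, Uev1a/Ubc13 and TRAF6 added last to start. IC50s derived across compound concentrations.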

A further test relates to H1299 cells. The test is described as follows: Cell proliferation PAD assay, H1299. The format is cell-based. Conditions: Homo sapiens, NCI-H1299, 3pt, 48 hours, read-out: H1299 3pt. In outline: (§1)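 2,000 cells/well; compound added at 24 h (duplicate, 6.3-fold series, 10 mM stock, 500× dilution into wells); 48 h, 37 °C/5% CO2. Formamide fix, DAPI stain, image-based counts of live (proliferation), apoptotic, dead cells.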

The next test has as its system A549 cells. Nature of the test: Cell proliferation PAD assay, A549. The format is cell-based. The following applies: Homo sapiens, 3pt, 48 hours, read-out: A549 3pt. The essentials: as §1

T1 sequence (P62877 whole entry): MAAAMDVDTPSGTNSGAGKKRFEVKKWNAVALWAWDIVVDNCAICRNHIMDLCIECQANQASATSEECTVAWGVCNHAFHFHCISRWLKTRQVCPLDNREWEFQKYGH
T1 sequence (Q13616 whole entry): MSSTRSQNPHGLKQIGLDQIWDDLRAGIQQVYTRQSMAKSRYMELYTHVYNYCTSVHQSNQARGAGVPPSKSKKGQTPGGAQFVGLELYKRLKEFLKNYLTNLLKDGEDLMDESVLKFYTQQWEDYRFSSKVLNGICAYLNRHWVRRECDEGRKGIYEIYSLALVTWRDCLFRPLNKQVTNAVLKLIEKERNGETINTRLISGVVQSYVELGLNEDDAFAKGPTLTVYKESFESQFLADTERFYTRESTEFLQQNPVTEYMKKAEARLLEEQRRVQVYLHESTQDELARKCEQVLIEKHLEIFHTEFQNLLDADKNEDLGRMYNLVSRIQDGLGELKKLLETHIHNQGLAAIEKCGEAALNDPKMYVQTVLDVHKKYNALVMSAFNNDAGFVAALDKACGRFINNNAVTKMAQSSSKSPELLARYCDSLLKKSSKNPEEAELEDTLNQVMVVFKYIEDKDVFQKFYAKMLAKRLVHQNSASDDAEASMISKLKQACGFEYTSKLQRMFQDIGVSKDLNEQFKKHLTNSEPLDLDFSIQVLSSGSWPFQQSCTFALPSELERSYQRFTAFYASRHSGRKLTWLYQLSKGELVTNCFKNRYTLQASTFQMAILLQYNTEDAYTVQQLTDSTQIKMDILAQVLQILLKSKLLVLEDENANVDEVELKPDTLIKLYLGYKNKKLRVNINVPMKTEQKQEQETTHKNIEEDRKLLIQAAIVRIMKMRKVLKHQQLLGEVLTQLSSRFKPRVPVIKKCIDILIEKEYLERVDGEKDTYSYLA

With `CC(=O)OCCCNc1cc(Sc2nnc(C)s2)c2nonc2c1[N+](=O)[O-]` [compound 133, 3-({7-[(5-methyl-1,3,4-thiadiazol-2-yl)thio]-4-nitro-2,1,3-benzoxadiazol-5-yl}amino)propyl acetate], the IC50 against ROC1/CUL1 and against TRAF6/Uev1A/Ubc13 was not below 20 µM in each case.
For `O=[N+]([O-])c1ccc(N2CCC3(CC2)OCc2ccccc23)c2nonc12` [compound 284, 1′-(7-nitro-2,1,3-benzoxadiazol-4-yl)-3H-spiro[2-benzofuran-1,4′-piperidine]], the IC50 is not below 20 µM with H1299 cells, not below 20 µM against ROC1/CUL1, not below 20 µM in the test on A549 cells and 1 to 20 µM at TRAF6/Uev1A/Ubc13.
Regarding `O=[N+]([O-])c1ccc(Nc2ccc3cn[nH]c3c2)c2nonc12` [compound 223, N-1H-indazol-6-yl-7-nitro-2,1,3-benzoxadiazol-4-amine], the IC50 at ROC1/CUL1 is not below 20 µM; on TRAF6/Uev1A/Ubc13 it was 1 to 20 µM.
On to `CCOC(=O)CSc1cc(NCCCOC(C)=O)c([N+](=O)[O-])c2nonc12` [compound 137, ethyl [(6-{[3-(acetyloxy)propyl]amino}-7-nitro-2,1,3-benzoxadiazol-4-yl)thio]acetate], for which the IC50 at ROC1/CUL1 and against TRAF6/Uev1A/Ubc13 was not below 20 µM in each case.
Consider `COC(=O)c1ccc(NS(=O)(=O)c2ccc(Sc3ccncc3)c3nonc23)cc1` [compound 256, methyl 4-({[7-(pyridin-4-ylthio)-2,1,3-benzoxadiazol-4-yl]sulfonyl}amino)benzoate], for which the IC50 at ROC1/CUL1 and against TRAF6/Uev1A/Ubc13 was not below 20 µM in each case.
Take `O=C(Nc1ccc(N2CCN(c3ncc(C(F)(F)F)cc3Cl)CC2)c2nonc12)c1cccs1` [compound 281, N-(7-{4-[3-chloro-5-(trifluoromethyl)pyridin-2-yl]piperazin-1-yl}-2,1,3-benzoxadiazol-4-yl)thiophene-2-carboxamide]: the IC50 on ROC1/CUL1 and at TRAF6/Uev1A/Ubc13 was 1 to 20 µM each time.
As to `CN1CCN(S(=O)(=O)c2ccc(Sc3cccc4ccccc34)c3nonc23)CC1` [compound 267, 4-[(4-methylpiperazin-1-yl)sulfonyl]-7-(1-naphthylthio)-2,1,3-benzoxadiazole], the IC50 at ROC1/CUL1 and against TRAF6/Uev1A/Ubc13 was not below 20 µM each time.
Take `O=S(=O)(c1cccc2nsnc12)N1CCC2(CC1)OCc1ccccc12` [compound 257, 1′-(2,1,3-benzothiadiazol-4-ylsulfonyl)-3H-spiro[2-benzofiiran-1,4′-piperidine]]: the IC50 in the test on H1299 cells, against ROC1/CUL1, with A549 cells and at TRAF6/Uev1A/Ubc13 was not below 20 µM each time.
As to `COc1ccccc1Sc1ccc(S(=O)(=O)N2CCN(C)CC2)c2nonc12` [compound 270, 4-[(2-methoxyphenyl)thio]-7-[(4-methylpiperazin-1-yl)sulfonyl]-2,1,3-benzoxadiazole], the IC50 at ROC1/CUL1 and on TRAF6/Uev1A/Ubc13 was not below 20 µM throughout.
`O=[N+]([O-])c1ccc(N2CCC(Oc3ccccn3)CC2)c2nonc12` [compound 287, 4-nitro-7-[4-(pyridin-2-yloxy)piperidin-1-yl]-2,1,3-benzoxadiazole]: the IC50 on ROC1/CUL1 and against TRAF6/Uev1A/Ubc13 was not below 20 µM each time.
Turning to `O=S(=O)(c1ccc(Sc2ccc(O)cc2)c2nonc12)N1CCC(O)(c2ccc(Cl)cc2)CC1` [compound 228, 4-(4-chlorophenyl)-1-({7-[(4-hydroxyphenyl)thio]-2,1,3-benzoxadiazol-4-yl}sulfonyl)piperidin-4-ol], the IC50 in the test on H1299 cells was not below 20 µM; on ROC1/CUL1 it was not below 20 µM; with A549 cells, not below 20 µM; against TRAF6/Uev1A/Ubc13, less than 1 µM.
Take `CN1CCN(S(=O)(=O)c2ccc(Sc3ccc(O)cc3)c3nonc23)CC1` [compound 266, 4-({7-[(4-methylpiperazin-1-yl)sulfonyl]-2,1,3-benzoxadiazol-4-yl}thio)phenol]: the IC50 against ROC1/CUL1 and on TRAF6/Uev1A/Ubc13 was not below 20 µM in each case.
Consider `CC1CN(S(=O)(=O)c2c(Sc3cccc4cccnc34)ccc3nonc23)CC(C)O1` (centres unmarked) [compound 216, 8-({4-[(2,6-dimethylmorpholin-4-yl)sulfonyl]-2,1,3-benzoxadiazol-5-yl}thio)quinoline], for which the IC50 against ROC1/CUL1 was not below 20 µM; against TRAF6/Uev1A/Ubc13, 1 to 20 µM.
Consider `CC1CC(C)CN(S(=O)(=O)c2ccc(Sc3cccc4cccnc34)c3nonc23)C1` (centres unmarked) [compound 197, 8-({7-[(3,5-dimethylpipendin-1-yl)sulfonyl]-2,1,3-benzoxadiazol-4-yl}thio)quinoline], for which the IC50 in the test with H1299 cells is 1 to 20 µM; against ROC1/CUL1, not below 20 µM; in the test with A549 cells, 1 to 20 µM; at TRAF6/Uev1A/Ubc13, 1 to 20 µM.
On to `O=[N+]([O-])c1ccc(N2CCC(Sc3ccccn3)CC2)c2nonc12` [compound 288, 4-nitro-7-[4-(pyridin-2-ylthio)piperidin-1-yl]-2,1,3-benzoxadiazole], for which the IC50 against ROC1/CUL1 and against TRAF6/Uev1A/Ubc13 was not below 20 µM throughout.
For `O=[N+]([O-])c1ccc(Nc2ccc3[nH]ncc3c2)c2nonc12` [compound 222, N-1H-indazol-5-yl-7-nitro-2,1,3-benzoxadiazol-4-amine], the IC50 in the test on H1299 cells was 1 to 20 µM; at ROC1/CUL1, not below 20 µM; with A549 cells, not below 20 µM; against TRAF6/Uev1A/Ubc13 it was 1 to 20 µM.
For `CC(=O)OCCCNc1cc(SCc2ccco2)c2nonc2c1[N+](=O)[O-]` [compound 136, 3-({7-[(2-furylmethyl)thio]-4-nitro-2,1,3-benzoxadiazol-5-yl}amino)propyl acetate], the IC50 against ROC1/CUL1 and on TRAF6/Uev1A/Ubc13 was not below 20 µM in each case.
On to `N#Cc1ccc(N2CCN(S(=O)(=O)c3c(Sc4cccc5cccnc45)ccc4nonc34)CC2)nc1` [compound 212, 6-(4-{[5-(quinolin-8-ylthio)-2,1,3-benzoxadiazol-4-yl]sulfonyl}piperazin-1-yl)nicotinonitrile], for which the IC50 in the test with H1299 cells was 1 to 20 µM; at ROC1/CUL1, not below 20 µM; in the test with A549 cells, 1 to 20 µM; on TRAF6/Uev1A/Ubc13 it was 1 to 20 µM.
On to `O=S(=O)(Nc1ccc(F)c(F)c1)c1ccc(Nc2ccc(F)c(F)c2)c2nonc12` [compound 264, N-(3,4-difluorophenyl)-7-[(3,4-difluorophenyl)amino]-2,1,3-benzoxadiazole-4-sulfonamide], for which the IC50 against ROC1/CUL1 and on TRAF6/Uev1A/Ubc13 was not below 20 µM each time.
On to `CC(=O)OCCCNc1cc(SC2CCCCC2)c2nonc2c1[N+](=O)[O-]` [compound 135, 3-{[7-(cyclohexylthio)-4-nitro-2,1,3-benzoxadiazol-5-yl]amino}propyl acetate], for which the IC50 against ROC1/CUL1 and on TRAF6/Uev1A/Ubc13 was not below 20 µM throughout.
Regarding `O=S(=O)(c1ccc(Sc2ccc3ccccc3n2)c2nonc12)N1CCC(O)(c2ccc(Cl)cc2)CC1` [compound 485, 4-(4-chlorophenyl)-1-({7-(quinolin-2ylthio)-2,1,3-benzoxadiazol-4-yl}sulfonyl)piperidin-4-ol], the IC50 against ROC1/CUL1 and against TRAF6/Uev1A/Ubc13 was not below 20 µM in each case.
Turning to `CCCSc1cc(NCCCOC(C)=O)c([N+](=O)[O-])c2nonc12` [compound 134, 4-{[4-nitro-7-(propylthio)-2,1,3-benzoxadiazol-5-yl]amino}propyl acetate], the IC50 against ROC1/CUL1 and on TRAF6/Uev1A/Ubc13 was not below 20 µM throughout.

Source of the values: patent US20050282818A1, “Ubiquitin ligase inhibitors” (Rigel Pharmaceuticals, Inc., priority 2004, published 2005).
